1 molecule from publication PMC8913831 (Scientific Reports, 2022) can be followed below.

In this assay the target is T1, CbCBP (cellobiose phosphorylase) (Caldicellulosiruptor bescii, UniProt A0ABY1SBL4).
T1 construct: gene SAMN05216240_2653; C-terminal (His)6 tag, pET20b, E. coli BL21 CodonPlus-RIL; 94 kDa on SDS-PAGE, about 200 kDa native (homodimer); GH94
T1 sequence (A0ABY1SBL4 1-811): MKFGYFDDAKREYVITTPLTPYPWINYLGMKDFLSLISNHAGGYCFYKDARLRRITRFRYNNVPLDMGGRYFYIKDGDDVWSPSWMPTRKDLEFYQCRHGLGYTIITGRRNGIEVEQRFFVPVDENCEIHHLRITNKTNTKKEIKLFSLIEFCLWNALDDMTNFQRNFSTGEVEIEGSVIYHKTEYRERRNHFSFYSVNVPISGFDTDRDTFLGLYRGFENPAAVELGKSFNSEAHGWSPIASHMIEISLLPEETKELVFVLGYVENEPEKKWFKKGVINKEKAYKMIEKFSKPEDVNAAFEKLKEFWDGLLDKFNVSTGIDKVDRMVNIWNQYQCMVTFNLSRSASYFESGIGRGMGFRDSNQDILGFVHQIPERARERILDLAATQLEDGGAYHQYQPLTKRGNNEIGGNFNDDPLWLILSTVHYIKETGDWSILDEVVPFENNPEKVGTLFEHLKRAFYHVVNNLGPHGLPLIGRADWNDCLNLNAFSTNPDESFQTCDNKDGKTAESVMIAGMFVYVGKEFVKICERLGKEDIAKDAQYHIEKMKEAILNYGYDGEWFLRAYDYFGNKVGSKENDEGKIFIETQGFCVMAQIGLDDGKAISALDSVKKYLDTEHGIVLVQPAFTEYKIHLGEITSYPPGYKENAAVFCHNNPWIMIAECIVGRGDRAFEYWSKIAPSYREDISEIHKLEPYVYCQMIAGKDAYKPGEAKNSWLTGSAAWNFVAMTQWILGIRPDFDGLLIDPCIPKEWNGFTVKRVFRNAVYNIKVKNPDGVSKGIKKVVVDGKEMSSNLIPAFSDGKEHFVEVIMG
Description: initial velocity, D-glucose release (glucose oxidase-peroxidase), fit to ordered Bi Bi equation. The assay is classed as biochemical. To be noted: phosphorolysis; substrate constant of the ordered Bi Bi rate equation with A = cellobiose, not an inhibitor constant; text states Pi binds first; MES-NaOH pH 7.0; 75 °C in Methods, 70 °C in Results. The text has this:
initial velocity, D-glucose release (glucose oxidase-peroxidase), fit to ordered Bi Bi equation on CbCBP (cellobiose phosphorylase)

Consider `OC[C@H]1O[C@@H](O[C@H]2[C@H](O)[C@@H](O)C(O)O[C@@H]2CO)[C@H](O)[C@@H](O)[C@@H]1O` (stereo partly shown) [cellobiose], for which the “Ki^A” value was 3.3 mM.
